Reference: patent US10716797B2, “Steroid alkaloids and compositions and kits thereof” (priority 2013, dated 2020)
Entries after “also recorded” stand apart in the source; their conditions may differ.

Key:
[1] = tested on: S. aureus SCV strain hemB; test: Murine lung infection (pneumonia) model; type: in vivo, mouse; details: mice; intratracheal, 4 h post-infection; lungs 24 h post-infection; hydrochloride
Method: Compound efficacy in a lung infection (pneumonia) model was evaluated as follow (Ragle et al, 2010; Mitchell et al, 2013): Mice (36) were challenged with an intra-tracheal injection of S. aureus SCV strain hemB (10^7 CFU) (10^7 CFU) (normal S. aureus could also have been used, mixed or not with P. aeruginosa for a co-infection). […] More particularly, 11 mice were untreated (Unrteated); 4 mice were treated with 10 μg of tomatidine (TO (10)); 4 mice were treated with 100 μg of tomatidine (TO (100)); 3 mice were treated with 10 μg of compound 14 (Compound 14 (10)); 8 mice were treated with 100 μg of compound 14 (Compound 14 (100)); and 6 mice were treated with 200 μg of compound 14 (Compound 14 (200)). Mice were euthanized 24 h post-infection. The lungs were recovered, homogenized, and bacterial CFU per g of tissue were determined by plating appropriate dilutions on Brain Hearth Infusion agar media (other media such as for example, mannitol salt agar for S. aureus or cetrimide plates for P. aeruginosa could be used).
Each dot represents the CFU per g of tissue for one mouse. The boxes represent the CFU data distribution, the first quartile, the median and the third quartile. Statistical differences (P<0.001) between CFU recovered from treated and untreated animals are shown by asterisks (non-parametric Kruskal-Wallis ANOVA with Dunn's post test).

[2] = tested on: Staphylococcus aureus strain SH1000 grown in biofilms; test: Calgary biofilm device, CFU and crystal violet; type: cell-based; details: hydrochloride
Method: The bactericidal activity of tomatidine and Compound 14 in combination with gentamicin against Staphylococcus aureus was evaluated against this bacterium grown in a biofilm. Biofilms confer to bacteria protection from host defenses as well as tolerance to some antibiotics that target active and dividing cells. In addition, biofilms also provide protection against hydrodynamic shear forces, and biofilm infections are generally difficult to eradicate even in hosts with intact immune system (Costerton et al, 1999; Davies 2003).
Staphylococcus aureus strain SH1000 of the normal phenotype (i.e., non-SCV) was used for its high ability to produce biofilms. The Calgary biofilm device (96-well plates with peg lids) was used to grow S. aureus in biofilms (Ceri et al, 1999) and to test the bactericidal activity of compounds (Moskowitz et al, 2004). Briefly, S. aureus SH1000 was grown in the Calgary biofilm device for 24 h at 35° C. until the biofilm forms on the pegs. The pegs were then washed, the medium was removed and the peg lids were dipped in fresh medium containing various amounts of test compounds. […] Replicate experiments were performed in order to quantify the residual amount of biofilm on pegs by crystal violet staining and spectrophotometry (absorbance [OD] at 562 nm).

[3] = tested on: S. aureus hemB (SaR1); test: MIC against tomatidine-resistant SCV mutant SaR1; type: cell-based, Staphylococcus aureus
Method: (§1) At each passage, using a microdilution method in 96-well microplates, S. aureus hemB was inoculated at ˜10^5-10^6 CFU/ml and incubated at 35° C. for 48 h. The range of tomatidine concentrations tested was 0.03 to 64 μg/ml using doubling increments. The concentration of gentamicin was fixed at 4 μg/mL when it was used in combination with tomatidine. At each passage, the minimal inhibitory concentrations (MICs) (i.e. lowest concentration of an antimicrobial that inhibits the visible growth of bacteria), of tomatidine was determined. The bacteria used as inoculum for the next passage were from the well preceeding the well showing the MIC (i.e. the well containing half the MIC). At each passage, the population of bacteria serving as the inoculum for the next passage was spread on BHI agar plates and three isolated colonies were collected and frozen until used for whole-genome sequencing.

[4] = tested on: MRSA COL; test: MIC by microdilution, alone or in combination, MRSA COL; type: cell-based, Staphylococcus aureus; details: agent used alone
Method: (§2) Method. The minimal inhibitory concentrations (MICs), (i.e. lowest concentration of an antimicrobial that will inhibit the visible growth of a microorganism after incubation), of test compounds were determined against the normal or SCV strains of bacterial species from the Firmicutes phylum. Briefly, MICs were determined using the microdilution method in 96-well plates (Clinical and Laboratory Standards Institute (CLSI), 2011). Bacteria were inoculated at ˜10^5-10^6 CFU/mL and incubated at 35° C. for 20 h (normal strains) or 48 h (SCVs) in brain heart infusion (BHI) broth in order to allow SCVs to reach maximal growth as previously described (Mitchell et al., 2012). Then OD595 nm was read on a microplate reader. […] In this example the range of compound concentrations tested was 0.03 to 64 μg/ml using doubling increments. Strain Staphylococcus aureus NewbouldΔhemB (hemB) was also used in the experiments and is a laboratory-derived stable SCV created by the insertion of the macrolide resistance gene ermA in the hemB gene of this strain to create the SCV phenotype (defective electron transport chain and respiratory deficiency) through inactivation of hemin biosynthesis (Brouillette et al., 2004).
(§3) In the present Example the range of compound concentrations tested, using doubling increments, was 0.03 to 64 μg/ml for Compound 14 and up to 1024 μg/ml for gentamicin (GEN), kanamycin (KAN) and cefalexin (CEF) when these compounds were used alone. Compound 14 (Cpd 14) was used at a fixed concentration of 4 μg/ml when added to other antibiotics. The combination of CEF and KAN was used in a 3:2 ratio and doubling increments were used to test the antibacterial activity against MRSA in the absence or presence of Compound 14.

[5] = tested on: MRSA USA100; test: MIC by microdilution, alone or in combination, MRSA USA100; type: cell-based, Staphylococcus aureus; details: agent used alone
Method: as §2, §3

[6] = tested on: MRSA USA300; test: MIC by microdilution, alone or in combination, MRSA USA300; type: cell-based, Staphylococcus aureus; details: agent used alone
Method: as §2, §3

[7] = tested on: Staphylococcus aureus ATCC 29213; test: MIC by microdilution, compound alone or in combination with an aminoglycoside; type: cell-based
Method: as §2
The various antibacterial activities of the test compounds against Staphylococcus aureus ATCC 29213, alone or in combination with gentamicin, and alone against the SCV strain hemB are reported in Table 1.

[8] = tested on: S. aureus hemB (SaR2); test: MIC against tomatidine-resistant SCV mutant SaR2; type: cell-based, Staphylococcus aureus
Method: as §1

[9] = tested on: methicillin-resistant Staphylococcus aureus (MRSA) strains; test: MIC against MRSA strains; type: cell-based
Method: as §2, §3

Substance: 3-(N-aminoethyl)-aminotomatidine hydrochloride [Compound 14]
- bacterial load in lungs (CFU per g of tissue) [1]: significantly reduce the bacterial load; also recorded: superior to tomatidine hydrochloride salt
- killing of S. aureus in biofilms (Log 10 CFU/peg) ([2]; alone or in combination with gentamicin, 24 h): efficiently kills; also recorded: bactericidal
- biofilm disrupting activity (residual OD562 nm) ([2]; used alone, Compound 14 at 4 μg/ml, TO at 8 μg/ml): superior biofilm disrupting activity; also recorded: can also disrupt biofilm formation
- Fold increase in resistance (MIC for mutant / MIC for NewbouldΔhemB) ([3]; mutant SaR1): 16 fold
- MIC ([3]; tomatidine-resistant mutant SaR1): 8 µg/mL
- MIC [4]: 16 µg/mL
- MIC [5]: 16 µg/mL
- MIC [6]: 16 µg/mL
- potentiaton fold with gentamicin ([7]; MIC gentamicin alone / MIC gentamicin with compound at 4 μg/mL): 4-8 x
- potentiation / synergy with aminoglycoside (gentamicin) in words ([7]; S. aureus ATCC 29213): retain the ability to potentiate
- activity vs ATCC29213 in words ([7]; compound tested alone): Active
- MIC vs ATCC29213 ([7]; compound tested alone, hydrochloride): 8 to 16 µg/mL
- potentiation activity with gentamicin in words ([7]; compound used at 4 μg/mL): Moderate-high
- Combination MIC vs ATCC29213 (MIC of gentamicin in combination with the compound) ([7]; compound used at 4 μg/mL, MIC of gentamicin alone 0.5 μg/mL): 0.06-0.12
- Fold increase in resistance (MIC for mutant / MIC for NewbouldΔhemB) ([8]; mutant SaR2): 8 fold
- MIC ([8]; tomatidine-resistant mutant SaR2): 4 µg/mL
- potentiation fold on addition of Compound 14 to cefalexin:kanamycin combination ([9]; MRSA strains resistant to both cefalexin and kanamycin): 32 fold
- MIC on MRSA strains ([9]; used alone, tested MRSA strains (kanamycin: two of the strains)): 16 µg/mL
